Data taken from the NIST ThermoML archive (doi:10.1021/je050060q).

Conditions: Liquid; for mass density: Pycnometric method

CCCCCC [hexane]
Conditions | mass density [kg/m3] | speed of sound [m/s]
293.15 K | 659.44 | 1098
298.15 K | 654.93 | 1076
303.15 K | 650.36 | 1054
308.15 K | 645.74 | 1032
313.15 K | 641.08 | 1010
318.15 K | 636.37 | 988
323.15 K | 631.61 | 966
328.15 K | 626.81 | 944
333.15 K | 621.95 | 921
338.15 K | – | 900
343.15 K | – | 878
348.15 K | – | 856
353.15 K | – | 834
358.15 K | – | 812
363.15 K | – | 790
368.15 K | – | 768
373.15 K | – | 747

CCCCCCCCCCCCCCCC [hexadecane]
Conditions | mass density [kg/m3] | speed of sound [m/s]
293.15 K | 773.38 | 1357
298.15 K | 769.97 | 1338
303.15 K | 766.55 | –
308.15 K | 763.12 | 1301
313.15 K | 759.68 | 1283
318.15 K | 756.24 | 1265
323.15 K | 752.79 | 1246
328.15 K | 749.33 | 1228
333.15 K | 745.86 | 1211
338.15 K | 742.39 | 1193
343.15 K | 738.91 | 1176
348.15 K | 735.42 | 1158
353.15 K | 731.93 | 1141
358.15 K | 728.43 | 1124
363.15 K | 724.92 | 1107
368.15 K | 721.4 | 1090
373.15 K | 717.88 | 1074
